How the values were obtained:
DYRK1B [1] = molecular target: T1, DYRK1B (Homo sapiens, UniProt Q9Y463); assay: HiBiT split luciferase assay of targeted degradation of DYRK1B in Flp-In T-REx 293 cells; format: cell-based; conditions: 300 nM compound, 24 h, HiBiT-tagged DYRK1B in Flp-In T-REx 293 cells, normalized to vehicle; read-out: Relative Degradation at 300 nM DYRK1B
T1 construct: purchased Eurofins; host or cells: E. coli BL21-derived (T7 phage display) or HEK-293
From the text: (§1) The Flp-In T-REx 293 Cell Line and the pcDNA5/FRT/TO vector (Invitrogen) were used to generate stable cell clones for tetracyclin-inducible expression of DYRK1A and DYRK1B. These cells contain a single stably integrated Flp recognition target (FRT) site, which allows for site-specific integration of the expression cassette by the Flp (Flippase) recombinase. DYRK1 constructs were designed to contain a C-terminal HiBiT tag for quantitative detection of HiBiT-tagged proteins in cellular lysates with the help a split luciferase assay (Nano-Glo HiBiT Lytic Detection System, Promega). To monitor the targeted degradation of DYRK1A or DYRK1B, cells were seeded in 96-well plates (10,000 cells/per well) and treated with doxycyclineinal concentration 2 μg/ml) to induce DYRK1 expression. Compounds with presumed PROTAC activity were administered 24 h after seeding. After further incubation for 24 h, cells were grossly and microscopically inspected for overt toxicity. Cells were lysed in 100 μL ice-cold passive lysis buffer (PLB, Promega) by orbital shaking (30 min on ice) before lysates were centrifuged in PCR tube (20 min 20,000 g, RT). A 10 μl aliquot of the supernatant was subjected to the HiBiT lytic assay. Luminescence was quantified in an Orion Microplate luminometer (Berthold Detection System, Germany). All compounds were tested in duplicate or triplicate wells (technical replicates) and at least two independent experiments. Relative degradation was calculated by normalization to vehicle-treated control samples.

DYRK1A [2] = molecular target: T2, DYRK1A (Homo sapiens, UniProt Q13627); assay: KdELECT kinase binding assay (Eurofins), DYRK1A; conditions: 11-point 3-fold dilution series, qPCR readout; read-out: Binding Affinity (Kd) DYRK1A
T2 construct: purchased Eurofins; host or cells: E. coli BL21-derived (T7 phage display) or HEK-293
Experimental: (§2) KDs were obtained from Eurofins who used the following procedure: Kinase tagged T7 phase strains were prepared in an E. coli host derived from the BL21 strain. E. coli were grown to log-phase and infected with T7 phage and incubated with shaking at 32° C. until lysis. The lysates were centrifuged and filtered to remove cell debris. The remaining kinases were produced in HEK-293 cells and subsequently tagged with DNA for qPCR detection. Streptavidin-coated magnetic beads were treated with biotinylated small molecule ligands for 30 minutes at room temperature to generate affinity resins for kinase assays. The liganded beads were blocked with excess biotin and washed with locking buffer (SeaBlock (Pierce), 1% BSA, 0.05% Tween 20, 1 mM DTT) to remove unbound ligand and to reduce non-specific binding. Binding reactions were assembled by combining kinases, liganded affinity beads, and test compounds in 1× binding buffer (20% SeaBlock, 0.17× PBS, 0.05% Tween 20, 6 mM DTT). Test compounds were prepared as 111X stocks in 100% DMSO. Kds were determined using a 11-poin 3-fold compound dilution series with three DMSO control points. All compounds for Kd measurements are distributed by acoustic transfer (non-contact dispensing) in 100% DMSO. The compounds were then diluted directly into the assays such that the final concentration of DMSO was 0.9%. All reactions performed in polypropylene 384-well plate. Each was a final volume of 0.02 mL. The assay plates were incubated at room temperature with shaking for 1 hour and the affinity beads were washed with wash buffer (1×PBS, 0.05% Tween 20). The beads were then resuspended in elution buffer (1X PBS, 0.05% Tween 20, 0.5 µM nonbiotinylated affinity ligand) and incubated at room temperature with shaking for 30 minutes. The kinase concentration in the eluates was measured by qPCR.

DYRK1B [3] = molecular target: T1, DYRK1B; assay: KdELECT kinase binding assay (Eurofins), DYRK1B; conditions: 11-point 3-fold dilution series, qPCR readout; read-out: Binding Affinity (Kd) DYRK1B
Experimental: as §2

DYRK1A [4] = molecular target: T2, DYRK1A; assay: HiBiT split luciferase assay of targeted degradation of DYRK1A in Flp-In T-REx 293 cells; format: cell-based; conditions: 300 nM compound, 24 h, HiBiT-tagged DYRK1A in Flp-In T-REx 293 cells, normalized to vehicle; read-out: Relative Degradation at 300 nM DYRK1A
From the text: as §1

T1 sequence (Q9Y463 whole entry, species assumed): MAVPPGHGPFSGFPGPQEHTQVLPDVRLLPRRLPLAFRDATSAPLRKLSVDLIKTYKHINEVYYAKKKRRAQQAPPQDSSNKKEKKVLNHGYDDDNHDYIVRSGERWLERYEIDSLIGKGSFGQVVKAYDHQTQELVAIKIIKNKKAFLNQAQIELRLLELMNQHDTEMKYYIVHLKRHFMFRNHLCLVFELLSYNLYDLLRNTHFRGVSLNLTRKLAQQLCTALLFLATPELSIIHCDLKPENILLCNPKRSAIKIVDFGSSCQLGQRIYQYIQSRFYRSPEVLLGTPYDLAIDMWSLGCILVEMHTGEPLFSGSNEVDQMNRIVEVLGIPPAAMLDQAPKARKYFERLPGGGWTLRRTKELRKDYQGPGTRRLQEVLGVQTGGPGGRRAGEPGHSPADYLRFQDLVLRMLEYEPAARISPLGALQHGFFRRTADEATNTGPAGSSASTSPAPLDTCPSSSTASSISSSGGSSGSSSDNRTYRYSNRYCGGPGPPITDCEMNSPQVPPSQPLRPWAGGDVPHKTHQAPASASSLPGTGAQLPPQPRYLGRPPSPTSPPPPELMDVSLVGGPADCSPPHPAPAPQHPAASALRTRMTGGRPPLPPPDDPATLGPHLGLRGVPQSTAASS

SMILES	inhibition at 0.3 µM (DYRK1B [1]) [%]	Kd (DYRK1A [2]) [nM]	Kd (DYRK1B [3]) [nM]	inhibition at 0.3 µM (DYRK1A [4]) [%]
Cc1nc2ccc(-c3ccnc(N)c3)nc2n1-c1ccc(N2CCN(CC#Cc3ccc(N4CCC(C(=O)N5CCC(n6cc(CNc7cccc8c7C(=O)N(C7CCC(=O)N(C)C7=O)C8=O)cn6)CC5)CC4)nc3)CC2)c(F)c1 (stereo not drawn) [Compound 31, 4-(((1-(1-(1-(5-(3-(4-(4-(5-(2-aminopyridin-4-yl)-2-methyl-3H-imidazo[4,5-b]pyridin-3-yl)-2-fluorophenyl)piperazin-1-yl)prop-1-yn-1-yl)pyridin-2-yl)piperidine-4-carbonyl)piperidin-4-yl)-1H-pyrazol-4-yl)methyl)amino)-2-(1-methyl-2,6-dioxopiperidin-3-yl)isoindoline-1,3-dione]	< 30	–	–	< 30
Cc1nc2ccc(-c3ccnc(N)c3)nc2n1-c1ccc(N2CCN(CCOCCOCCOCCOCCNc3cc4c(cc3F)C(=O)N(C3CCC(=O)NC3=O)C4=O)CC2)c(F)c1 (stereo not drawn) [Compound 13, 5-((14-(4-(4-(5-(2-aminopyridin-4-yl)-2-methyl-3H-imidazo[4,5-b]pyridin-3-yl)-2-fluorophenyl)piperazin-1-yl)-3,6,9,12-tetraoxatetradecyl)amino)-2-(2,6-dioxopiperidin-3-yl)-6-fluoroisoindoline-1,3-dione]	–	10 to 100	10 to 100	< 30
Cc1nc2ccc(-c3ccnc(N)c3)nc2n1-c1ccc(N2C[C@H]3CN(CC#Cc4ccc(N5CCC(C(=O)N6CCC(n7cc(CNc8cccc9c8C(=O)N(C8CCC(=O)NC8=O)C9=O)cn7)CC6)CC5)nc4)C[C@H]3C2)c(F)c1 (stereo partly drawn) [Compound 22, 4-(((1-(1-(1-(5-(3-((3aR,6aS)-5-(4-(5-(2-aminopyridin-4-yl)-2-methyl-3H-imidazo[4,5-b]pyridin-3-yl)-2-fluorophenyl)hexahydropyrrolo[3,4-c]pyrrol-2 (1H)-yl)prop-1-yn-1-yl)pyridin-2-yl)piperidine-4-carbonyl)piperidin-4-yl)-1H-pyrazol-4-yl)methyl)amino)-2-(2,6-dioxopiperidin-3-yl)isoindoline-1,3-dione]	< 30	–	–	30 to 60
Cc1nc2ccc(-c3ccnc(N)c3)nc2n1-c1ccc(N2CCN(C(=O)CCCN3CCN(Cc4ccc(CNc5cccc6c5CN(C5CCC(=O)NC5=O)C6=O)cc4)CC3)CC2)c(F)c1 (stereo not drawn) [Compound 12, 3-(4-((4-((4-(4-(4-(4-(5-(2-aminopyridin-4-yl)-2-methyl-3H-imidazo[4,5-b]pyridin-3-yl)-2-fluorophenyl)piperazin-1-yl)-4-oxobutyl)piperazin-1-yl)methyl)benzyl)amino)-1-oxoisoindolin-2-yl)piperidine-2,6-dione]	–	< 10	< 10	30 to 60
Cc1nc2ccc(-c3ccnc(N)c3)nc2n1-c1ccc(N2CCN(C(=O)CCCN3CCC(n4cc(CNc5cccc6c5C(=O)N(C5CCC(=O)NC5=O)C6=O)cn4)CC3)CC2)c(F)c1 (stereo not drawn) [Compound 16, 4-(((1-(1-(4-(4-(4-(5-(2-aminopyridin-4-yl)-2-methyl-3H-imidazo[4,5-b]pyridin-3-yl)-2-fluorophenyl)piperazin-1-yl)-4-oxobutyl)piperidin-4-yl)-1H-pyrazol-4-yl)methyl)amino)-2-(2,6-dioxopiperidin-3-yl)isoindoline-1,3-dione]	–	< 10	< 10	30 to 60
Cc1nc2ccc(-c3ccnc(N)c3)nc2n1-c1ccc(N2CCN(C(=O)CCN3CCN(Cc4ccc(CNc5cccc6c5CN(C5CCC(=O)NC5=O)C6=O)cc4)CC3)CC2)c(F)c1 (stereo not drawn) [Compound 11, 3-(4-((4-((4-(3-(4-(4-(5-(2-aminopyridin-4-yl)-2-methyl-3H-imidazo[4,5-b]pyridin-3-yl)-2-fluorophenyl)piperazin-1-yl)-3-oxopropyl)piperazin-1-yl)methyl)benzyl)amino)-1-oxoisoindolin-2-yl)piperidine-2,6-dione]	–	10 to 100	10 to 100	< 30
Cc1nc2ccc(-c3ccnc(N)c3)nc2n1-c1ccc(N2CCN(C(=O)CCCCN3CCN(Cc4ccc(CNc5cccc6c5CN(C5CCC(=O)NC5=O)C6=O)cc4)CC3)CC2)c(F)c1 (stereo not drawn) [Compound 14, 3-(4-((4-((4-(5-(4-(4-(5-(2-aminopyridin-4-yl)-2-methyl-3H-imidazo[4,5-b]pyridin-3-yl)-2-fluorophenyl)piperazin-1-yl)-5-oxopentyl)piperazin-1-yl)methyl)benzyl)amino)-1-oxoisoindolin-2-yl)piperidine-2,6-dione]	–	< 10	< 10	< 30

Continued, values first:

inhibition at 0.3 µM (DYRK1B [1]) [%]	Kd (DYRK1A [2]) [nM]	Kd (DYRK1B [3]) [nM]	inhibition at 0.3 µM (DYRK1A [4]) [%]	SMILES
< 30	10 to 100	10 to 100	> 60	Cc1nc2ccc(-c3ccnc(N)c3)nc2n1-c1ccc(N2CCN(CC#Cc3ccc(N4CCC(C(=O)N5CCC(n6cc(CNc7cccc8c7C(=O)N(C7CCC(=O)NC7=O)C8=O)cn6)CC5)CC4)nc3)CC2)c(C(F)(F)F)c1 (stereo not drawn) [Compound 24, 4-(((1-(1-(1-(5-(3-(4-(4-(5-(2-aminopyridin-4-yl)-2-methyl-3H-imidazo[4,5-b]pyridin-3-yl)-2-(trifluoromethyl)phenyl)piperazin-1-yl)prop-1-yn-1-yl)pyridin-2-yl)piperidine-4-carbonyl)piperidin-4-yl)-1H-pyrazol-4-yl)methyl)amino)-2-(2,6-dioxopiperidin-3-yl)isoindoline-1,3-dione]
–	< 10	10 to 100	> 60	Cc1nc2ccc(-c3ccnc(N)c3)nc2n1-c1ccc(N2CCN(CC#Cc3ccc(C4(C(=O)N5CCC(n6cc(CNc7cccc8c7C(=O)N(C7CCC(=O)NC7=O)C8=O)cn6)CC5)CCC4)cc3)CC2)c(F)c1 (stereo not drawn) [Compound 28, 4-(((1-(1-(1-(4-(3-(4-(4-(5-(2-aminopyridin-4-yl)-2-methyl-3H-imidazo[4,5-b]pyridin-3-yl)-2-fluorophenyl)piperazin-1-yl)prop-1-yn-1-yl)phenyl)cyclobutane-1-carbonyl)piperidin-4-yl)-1H-pyrazol-4-yl)methyl)amino)-2-(2,6-dioxopiperidin-3-yl)isoindoline-1,3-dione]
< 30	–	–	> 60	Cc1nc2ccc(-c3ccnc(N)c3)nc2n1-c1cc(Cl)c(N2CCN(CC#Cc3ccc(N4CCC(C(=O)N5CCC(n6cc(CNc7cccc8c7C(=O)N(C7CCC(=O)NC7=O)C8=O)cn6)CC5)CC4)nc3)CC2)c(Cl)c1 (stereo not drawn) [Compound 27, 4-(((1-(1-(1-(5-(3-(4-(4-(5-(2-aminopyridin-4-yl)-2-methyl-3H-imidazo[4,5-b]pyridin-3-yl)-2,6-dichlorophenyl)piperazin-1-yl)prop-1-yn-1-yl)pyridin-2-yl)piperidine-4-carbonyl)piperidin-4-yl)-1H-pyrazol-4-yl)methyl)amino)-2-(2,6-dioxopiperidin-3-yl)isoindoline-1,3-dione]
30 to 50	–	–	> 60	Cc1nc2ccc(-c3ccnc(N)c3)nc2n1-c1ccc(N2CCN(c3ccc(N4CCC(C(=O)N5CCC(n6cc(CNc7cccc8c7C(=O)N(C7CCC(=O)NC7=O)C8=O)cn6)CC5)CC4)nc3)CC2)c(F)c1 (stereo not drawn) [Compound 26, 4-(((1-(1-(1-(5-(4-(4-(5-(2-aminopyridin-4-yl)-2-methyl-3H-imidazo[4,5-b]pyridin-3-yl)-2-fluorophenyl)piperazin-1-yl)pyridin-2-yl)piperidine-4-carbonyl)piperidin-4-yl)-1H-pyrazol-4-yl)methyl)amino)-2-(2,6-dioxopiperidin-3-yl)isoindoline-1,3-dione]
